For this assay, the system named is L1210 leukemia ip in BDF1 mice, survival T/C. Put plainly: NCI In Vivo Anticancer Drug Screen. Data for tumor model L1210 Leukemia (intraperitoneal) in B6D2F1 (BDF1) mice. The note with it: endpoint: mean survival time, higher = longer survival. The gist of the method:
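Each compound was tested against a transplantable tumor grown in mice. The endpoint was survival, with treated animals benchmarked against vehicle controls as a simple ratio.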

Setting [1] is: dose: 50.0 mg/kg/injection, schedule: Q01DX009 (ip), vehicle: saline.
The mark [2] stands for this setting: dose: 100.0 mg/kg/injection, schedule: Q01DX009 (ip), vehicle: saline.
Where [3] appears, read: dose: 100.0 mg/kg/injection, schedule: Q04DX003 (ip), vehicle: saline.
Where [4] appears, read: dose: 200.0 mg/kg/injection, schedule: Q04DX003 (ip), vehicle: saline.
Where [5] appears, read: dose: 100.0 mg/kg/injection, schedule: Q04DX003 (ip), vehicle: Klucel (hydroxypropylcellulose) (HPC).
The mark [6] stands for this setting: dose: 200.0 mg/kg/injection, schedule: Q04DX003 (ip), vehicle: Klucel (hydroxypropylcellulose) (HPC).
The mark [7] stands for this setting: dose: 400.0 mg/kg/injection, schedule: Q04DX003 (ip), vehicle: Klucel (hydroxypropylcellulose) (HPC).
Setting [8] is: dose: 100.0 mg/kg/injection, schedule: Q04DX003 (ip), vehicle: saline with Tween-80.
The mark [9] stands for this setting: dose: 200.0 mg/kg/injection, schedule: Q04DX003 (ip), vehicle: saline with Tween-80.
The mark [10] stands for this setting: dose: 400.0 mg/kg/injection, schedule: Q04DX003 (ip), vehicle: saline with Tween-80.
Where [11] appears, read: dose: 100.0 mg/kg/injection, schedule: Q01DX009 (ip), vehicle: saline with Tween-80.
The mark [12] stands for this setting: dose: 200.0 mg/kg/injection, schedule: Q01DX009 (ip), vehicle: saline with Tween-80.
Setting [13] is: dose: 400.0 mg/kg/injection, schedule: Q01DX009 (ip), vehicle: saline with Tween-80.
Where [14] appears, read: dose: 50.0 mg/kg/injection, schedule: Q01DX009 (ip), vehicle: Klucel (hydroxypropylcellulose) (HPC).
[15] abbreviates: dose: 100.0 mg/kg/injection, schedule: Q01DX009 (ip), vehicle: Klucel (hydroxypropylcellulose) (HPC).

Each structure is given as a SMILES string. “And” between values parts separate entries of the source, which are not always exact repeats. Equal entries are not always repeated. Toxic doses and inconclusive results are not listed.

Consider `CC(=O)[C@H]1CC[C@H]2[C@@H]3C[C@H](C)C4=CC(=O)CC[C@]4(C)[C@H]3[C@@H](O)C[C@]12C`, for which the T/C by setting is: under setting [1], 100 % of control; (dose: 50.0 mg/kg/injection, schedule: Q01DX Z (sc), vehicle: steriod suspending solution) 106 % of control; (dose: 50.0 mg/kg/injection, schedule: Q04DX003 (ip), vehicle: saline) 95 % of control; (dose: 100.0 mg/kg/injection, schedule: Q01DX001 (ip), vehicle: saline) 93 % of control; under setting [2], 94 % of control; (dose: 100.0 mg/kg/injection, schedule: Q01DX Z (sc), vehicle: steriod suspending solution) 103 % of control. In addition, the T/C was 103 % of control under setting [3]; 104 % of control (dose: 200.0 mg/kg/injection, schedule: Q01DX001 (ip), vehicle: saline); 102 % of control (dose: 200.0 mg/kg/injection, schedule: Q01DX009 (ip), vehicle: saline); 103 % of control (dose: 200.0 mg/kg/injection, schedule: Q01DX Z (sc), vehicle: steriod suspending solution); 102 % of control under setting [4]; 98 % of control (dose: 400.0 mg/kg/injection, schedule: Q01DX Z (sc), vehicle: steriod suspending solution).
On to `CN(Cc1ccccc1)c1cc(=O)[nH]c(=O)[nH]1`, for which the T/C under setting [5] was 102 % of control, the T/C under setting [6] is 96 % of control and the T/C under setting [7] is 100 % of control.
Turning to `O=C(Nc1cccc(Cl)c1)SCCSC(=O)Nc1cccc(Cl)c1`, the T/C was 88 % of control (dose: 100.0 mg/kg/injection, schedule: Q01DX001 (ip), vehicle: saline with Tween-80); 98 % of control under setting [8]; 93 % of control (dose: 200.0 mg/kg/injection, schedule: Q01DX001 (ip), vehicle: saline with Tween-80); 87 % of control under setting [9]; 88 % of control under setting [10].
With `O=C(O)/C=C/C(=O)NCc1ccco1`, the T/C runs as follows: under setting [11], 98 % of control; under setting [12], 96 % of control; under setting [13], 101 % of control.
For `Fc1ccccc1-c1nnc(-c2ccccc2)o1`, the T/C reads like this: under setting [5], 98 % of control; under setting [6], 113 % of control; under setting [7], 103 % of control.
In the case of `Cc1c(Cl)cccc1NC(=O)Oc1ccc(Cl)cc1Cl`, the T/C runs as follows: (dose: 50.0 mg/kg/injection, schedule: Q01DX009 (ip), vehicle: saline with Tween-80) 94 % of control; under setting [11], 103 % of control; under setting [12], 106 % of control.
As for `CC(C)(C)CN`, the T/C reads like this: under setting [1], 98 % of control; under setting [2], 93 % of control; under setting [3], 102 % of control; under setting [4], 98 % of control.
On to `CS(C)=O.CS(C)=O.[Cl][Sn]([Cl])([Cl])[Cl]`, for which the T/C was 95 % of control (dose: 25.0 mg/kg/injection, schedule: Q01DX009 (ip), vehicle: Klucel (hydroxypropylcellulose) (HPC)); 90 % of control under setting [14]; 106 % of control under setting [15]; 95 % of control under setting [5]; 104 % of control (dose: 150.0 mg/kg/injection, schedule: Q01DX009 (ip), vehicle: Klucel (hydroxypropylcellulose) (HPC)).
Turning to `CNC(=O)Oc1ccc([N+](=O)[O-])cc1`, the T/C reads like this: (dose: 75.0 mg/kg/injection, schedule: Q01DX001 (ip), vehicle: other) 101 % of control; (dose: 150.0 mg/kg/injection, schedule: Q01DX001 (ip), vehicle: other) 101 % of control; (dose: 300.0 mg/kg/injection, schedule: Q01DX001 (ip), vehicle: other) 104 % of control.
For the compound `CN(C(=O)CCC(=O)N(C)c1ccccc1)c1ccccc1`, the T/C is 97 % of control under setting [11] and 87 % of control under setting [12].
Take `COC(OC)c1cc(=O)n(C)c(=O)[nH]1`: the T/C under setting [8] was 104 % of control; the T/C under setting [12] was 93 % of control; the T/C under setting [9] was 104 % of control; the T/C under setting [13] was 89 % of control; the T/C under setting [10] was 100 % of control.
`CC(C(O)c1ccc(F)cc1)C(O)(C(F)(F)F)C(F)(F)F` (stereo not drawn): the T/C is 97 % of control under setting [8], 98 % of control under setting [9] and 86 % of control under setting [10].
Consider `Nc1nc(=S)c2[nH]c(N=Nc3ccc(S(N)(=O)=O)cc3)nc2[nH]1`, for which the T/C under setting [14] was 97 % of control; the T/C (dose: 50.0 mg/kg/injection, schedule: Q04DX003 (ip), vehicle: Klucel (hydroxypropylcellulose) (HPC)) is 151 % of control; the T/C under setting [15] is 100 % of control; the T/C (dose: 200.0 mg/kg/injection, schedule: Q01DX009 (ip), vehicle: Klucel (hydroxypropylcellulose) (HPC)) is 100 % of control; the T/C under setting [6] was 94 % of control.
Consider `C/C=C1\CN(C)[C@H]2Cc3c([nH]c4ccccc34)[C@@H](c3cc4[nH]c5c(c4cc3OC)CCN3C[C@H]4C[C@H](CC)[C@H]3[C@@]5(C(=O)OC)C4)C[C@H]1C2C(=O)OC` (stereo partly drawn), for which the T/C by setting is: (dose: 30.0 mg/kg/injection, schedule: Q01DX Z (ip), vehicle: water) 106 % of control; (dose: 45.0 mg/kg/injection, schedule: Q01DX Z (ip), vehicle: water) 100 % of control and 102 % of control; (dose: 45.0 mg/kg/injection, schedule: Q02DX Z (ip), vehicle: water) 101 % of control; (dose: 60.0 mg/kg/injection, schedule: Q01DX Z (ip), vehicle: water) 96 % of control and 101 % of control; (dose: 60.0 mg/kg/injection, schedule: Q02DX Z (ip), vehicle: water) 104 % of control; (dose: 70.0 mg/kg/injection, schedule: Q02DX Z (ip), vehicle: water) 102 % of control. The T/C is 100 % of control (dose: 75.0 mg/kg/injection, schedule: Q01DX Z (ip), vehicle: water) and 100 % of control (dose: 90.0 mg/kg/injection, schedule: Q01DX Z (ip), vehicle: water).
As for `CCCC(NC(=O)C(C)NC(=O)OCc1ccccc1)C(=O)OC` (stereo not drawn), the T/C under setting [8] is 93 % of control, the T/C under setting [9] is 93 % of control and the T/C under setting [10] was 86 % of control.
For `COc1ccc(-c2nc3cc(Cl)ccc3c(=O)o2)cc1`, the T/C runs as follows: under setting [11], 94 % of control; under setting [12], 94 % of control; under setting [13], 90 % of control.
As to `NCCCCC(N)C(=O)Nc1ccc(Nc2ccc(NC(=O)C(N)CCCCN)cc2)cc1` (stereo not drawn), the T/C was 92 % of control (dose: 5.0 mg/kg/injection, schedule: Q01DX001 (ip), vehicle: saline); 90 % of control (dose: 10.0 mg/kg/injection, schedule: Q01DX001 (ip), vehicle: saline); 92 % of control (dose: 20.0 mg/kg/injection, schedule: Q01DX001 (ip), vehicle: saline); 93 % of control (dose: 40.0 mg/kg/injection, schedule: Q01DX001 (ip), vehicle: saline); 93 % of control (dose: 80.0 mg/kg/injection, schedule: Q01DX001 (ip), vehicle: saline).
For the compound `N#CS.[Tl]`, the T/C is, setting by setting: (dose: 9.5 mg/kg/injection, schedule: Q01DX001 (ip), vehicle: carboxymethylcellulose (CMC)) 92 % of control; (dose: 19.0 mg/kg/injection, schedule: Q01DX001 (ip), vehicle: carboxymethylcellulose (CMC)) 103 % of control; (dose: 38.0 mg/kg/injection, schedule: Q01DX001 (ip), vehicle: carboxymethylcellulose (CMC)) 105 % of control.

These data come from PubChem BioAssay AID248 (DTP/NCI, 2004).
